This series can be described thus: recombinant UMI read abundance after kanamycin selection (control-corrected) (log10(CPM+1)); higher = more efficient recombination; extreme values may be limits of the assay; sequences stand for … in AGTGCAGAGAAAATCGGCCAGTTTTCTCTGCCTGCAGTCCGCATGCCGTGGGACCCCTTGGGTTCTAACCTGTTGCCTAGATTTATGCAGCGGACTGCCTTTCTCCCAAAGTGATAAACCGG…AGGTTGGTTTCACT; site = the 11-nt donor. An outline of the steps:
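Pooled Escherichia coli screen of donor and donor-binding-loop pairs for the IS621 bridge recombinase. Each pair sits with a 12-nt UMI on a plasmid carrying a promoterless kanamycin gene. The library was co-electroporated with a target plasmid encoding a fixed target and T7-inducible recombinase, then plated with IPTG (0.07 mM) plus kanamycin, or unselected, each in two replicates. Recombinant UMIs were PCR-amplified across the donor–target junction and sequenced. Counts became CPM, averaged over replicates, scaled by control-derived factors and reported as log10(CPM+1).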
On to “ATCCAAGCATGGACCGGTTTTCCCGGTAATCCGTATTTGAG (site ATTCAAGCTCT)”, for which the “recombinant UMI read abundance (log10)” value stood at 0.0155.
To “ATCCAAGCATGGACCGGTTTTCCCGGTAATCCGTATTTGAG (site CTCCAAGCTCT)” belongs 0.656; to “ATCCAAGCATGGACCGGTTTTCCCGGTAATCCGTATTTGAG (site GTCCAAGCTCT)”, 0.00952; to “ATCCAAGCATGGACCGGTTTTCCCGGTAATCCGTATTTGAG (site TTCCAAGCTCT)”, 1.17.
The same measure for “ATCCAAGCATGGACCGGTTTTCCCGGTAATCCGTATTTGAT (site ATCCAAGCTAT)”: 1.36.
To “ATCCAAGCATGGACCGGTTTTCCCGGTAATCCGTATTTGAT (site ATCCAAGCTCT)” belongs 0.233; to “ATCCAAGCATGGACCGGTTTTCCCGGTAATCCGTATTTGAT (site ATCCAAGCTGT)”, 1.37.
Turning to “ATCCAAGCATGGACCGGTTTTCCCGGTAATCCGTATTTGAT (site ATCCAAGCTTT)”, the “recombinant UMI read abundance (log10)” value was found to be 0.0123.
To “ATCCAAGCATGGACCGGTTTTCCCGGTAATCCGTATTTGCG (site ATCCAAGCTCA)” belongs 0.0396; to “ATCCAAGCATGGACCGGTTTTCCCGGTAATCCGTATTTGCG (site ATCCAAGCTCC)”, 0.00949; to “ATCCAAGCATGGACCGGTTTTCCCGGTAATCCGTATTTGCG (site ATCCAAGCTCG)”, 0.262.
The same measure for “ATCCAAGCATGGACCGGTTTTCCCGGTAATCCGTATTTGCG (site ATCCAAGCTCT)”: 0.689; for “ATCCATGCATGGACCGGTTTTCCCGGTAATCCGTATTTGAG (site ATCCAAGCTCT)”: 0.0773.
Regarding “ATCCATGCATGGACCGGTTTTCCCGGTAATCCGTATTTGAG (site ATCCACGCTCT)”, the “recombinant UMI read abundance (log10)” value is 0.0124.
Take “ATCCATGCATGGACCGGTTTTCCCGGTAATCCGTATTTGAG (site ATCCAGGCTCT)”: the “recombinant UMI read abundance (log10)” value came out at 0.0333.
To “ATCCATGCATGGACCGGTTTTCCCGGTAATCCGTATTTGAG (site ATCCATGCTCT)” belongs 1.05; to “ATCCGCGCATGGACCGGTTTTCCCGGTAATCCGTATTTGCG (site ATCCGCGCTCG)”, 0.503.
Take “ATCCTAGCATGGACCGGTTTTCCCGGTAATCCGTATTTGTA (site ATCCTAGCTTA)”: the “recombinant UMI read abundance (log10)” value worked out at 1.58.
On to “ATCCTATCATGGACCGGTTTTCCCGGTAATCCGTATTTGAG (site ATCCTATCTCT)”, for which the “recombinant UMI read abundance (log10)” value was determined as 0.448.
Consider “ATCCTTCCATGGACCGGTTTTCCCGGTAATCCGTATTTGCC (site ATCCTTCCTGG)”, for which the “recombinant UMI read abundance (log10)” value was 0.
The same measure for “ATCGAGACATGGACCGGTTTTCCCGGTAATCCGTATTTGGT (site ATAGAGACTAC)”: 1.76; for “ATCGAGACATGGACCGGTTTTCCCGGTAATCCGTATTTGGT (site ATCGAGACTAC)”: 1.01.
The same measure for “ATCGAGACATGGACCGGTTTTCCCGGTAATCCGTATTTGGT (site ATGGAGACTAC)”: 0.604; for “ATCGAGACATGGACCGGTTTTCCCGGTAATCCGTATTTGGT (site ATTGAGACTAC)”: 0.017.
To “ATCGCGGCATGGACCGGTTTTCCCGGTAATCCGTATTTGTC (site ATCGCGGCTGA)” belongs 2.69; to “ATCTATACATGGACCGGTTTTCCCGGTAATCCGTATTTGAA (site ATCTATACTAT)”, 0.0589.
Consider “ATCTATACATGGACCGGTTTTCCCGGTAATCCGTATTTGAA (site ATCTATACTCT)”, for which the “recombinant UMI read abundance (log10)” value stood at 0.0128.
To “ATCTATACATGGACCGGTTTTCCCGGTAATCCGTATTTGAA (site ATCTATACTGT)” belongs 0.
To “ATCTATACATGGACCGGTTTTCCCGGTAATCCGTATTTGAA (site ATCTATACTTT)” belongs 1.29; to “ATCTATACATGGACCGGTTTTCCCGGTAATCCGTATTTGAC (site AACTATACTGT)”, 0.0062.
The same measure for “ATCTATACATGGACCGGTTTTCCCGGTAATCCGTATTTGAC (site ACCTATACTGT)”: 0.944.
For the sequence “ATCTATACATGGACCGGTTTTCCCGGTAATCCGTATTTGAC (site AGCTATACTGT)”, the “recombinant UMI read abundance (log10)” value was found to be 1.66.
The same measure for “ATCTATACATGGACCGGTTTTCCCGGTAATCCGTATTTGAC (site ATATATACTGT)”: 0.408; for “ATCTATACATGGACCGGTTTTCCCGGTAATCCGTATTTGAC (site ATCAATACTGT)”: 0.
To “ATCTATACATGGACCGGTTTTCCCGGTAATCCGTATTTGAC (site ATCCATACTGT)” belongs 1.7; to “ATCTATACATGGACCGGTTTTCCCGGTAATCCGTATTTGAC (site ATCGATACTGT)”, 0; to “ATCTATACATGGACCGGTTTTCCCGGTAATCCGTATTTGAC (site ATCTAAACTGT)”, 0.
Turning to “ATCTATACATGGACCGGTTTTCCCGGTAATCCGTATTTGAC (site ATCTACACTGT)”, the “recombinant UMI read abundance (log10)” value came to 0.552.
The same measure for “ATCTATACATGGACCGGTTTTCCCGGTAATCCGTATTTGAC (site ATCTAGACTGT)”: 0; for “ATCTATACATGGACCGGTTTTCCCGGTAATCCGTATTTGAC (site ATCTATACTAT)”: 0.00827.
In the case of “ATCTATACATGGACCGGTTTTCCCGGTAATCCGTATTTGAC (site ATCTATACTCT)”, the “recombinant UMI read abundance (log10)” value was found to be 0.011.
“ATCTATACATGGACCGGTTTTCCCGGTAATCCGTATTTGAC (site ATCTATACTGA)”: the “recombinant UMI read abundance (log10)” value was determined as 0.0717.
For “ATCTATACATGGACCGGTTTTCCCGGTAATCCGTATTTGAC (site ATCTATACTGC)”, the “recombinant UMI read abundance (log10)” value turned out to be 0.
Regarding “ATCTATACATGGACCGGTTTTCCCGGTAATCCGTATTTGAC (site ATCTATACTGG)”, the “recombinant UMI read abundance (log10)” value is 0.
Regarding “ATCTATACATGGACCGGTTTTCCCGGTAATCCGTATTTGAC (site ATCTATACTGT)”, the “recombinant UMI read abundance (log10)” value was found to be 2.44.
“ATCTATACATGGACCGGTTTTCCCGGTAATCCGTATTTGAC (site ATCTATACTTT)”: the “recombinant UMI read abundance (log10)” value came to 0.0131.
The same measure for “ATCTATACATGGACCGGTTTTCCCGGTAATCCGTATTTGAC (site ATCTATCCTGT)”: 0.
To “ATCTATACATGGACCGGTTTTCCCGGTAATCCGTATTTGAC (site ATCTATGCTGT)” belongs 0.
The same measure for “ATCTATACATGGACCGGTTTTCCCGGTAATCCGTATTTGAC (site ATCTATTCTGT)”: 0.327; for “ATCTATACATGGACCGGTTTTCCCGGTAATCCGTATTTGAC (site ATCTCTACTGT)”: 0; for “ATCTATACATGGACCGGTTTTCCCGGTAATCCGTATTTGAC (site ATCTGTACTGT)”: 0.
Consider “ATCTATACATGGACCGGTTTTCCCGGTAATCCGTATTTGAC (site ATCTTTACTGT)”, for which the “recombinant UMI read abundance (log10)” value came out at 0.

Source of the values: the supplement of paper PMC11208160.
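Note: IS621 bridge recombinase in Escherichia coli cells against a fixed T5 target plasmid.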
